Measured values as given in PubChem BioAssay (NCI).
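48-hour exposure; five concentrations; linearly interpolated endpoints. TGI: total growth inhibition.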

Assays:
Assay in all cases: NCI tumour cell line growth inhibition, 48 h
786-0 renal = test system: 786-0 renal
U251 CNS = test system: U251 CNS
T-47D breast = test system: T-47D breast
SF-295 CNS = test system: SF-295 CNS
OVCAR-3 ovarian = test system: OVCAR-3 ovarian
MDA-MB-231 breast = test system: MDA-MB-231 breast
MDA-N = test system: MDA-N
M14 melanoma = test system: M14 melanoma
SK-MEL-5 melanoma = test system: SK-MEL-5 melanoma
HCC-2998 colon = test system: HCC-2998 colon
HL-60(TB) leukemia = test system: HL-60(TB) leukemia
CCRF-CEM leukemia = test system: CCRF-CEM leukemia
SF-268 CNS = test system: SF-268 CNS
SN12C renal = test system: SN12C renal
BT-549 breast = test system: BT-549 breast
HCT-116 colon = test system: HCT-116 colon
K-562 leukemia = test system: K-562 leukemia
MCF7 breast = test system: MCF7 breast
SK-MEL-28 melanoma = test system: SK-MEL-28 melanoma
SR leukemia = test system: SR leukemia

| Compound | TGI (786-0 renal) [µM] | TGI (U251 CNS) [µM] | TGI (T-47D breast) [µM] | TGI (SF-295 CNS) [µM] | TGI (OVCAR-3 ovarian) [µM] | TGI (MDA-MB-231 breast) [µM] | TGI (MDA-N) [µM] | TGI (M14 melanoma) [µM] | TGI (SK-MEL-5 melanoma) [µM] | TGI (HCC-2998 colon) [µM] | TGI (HL-60(TB) leukemia) [µM] | TGI (CCRF-CEM leukemia) [µM] | TGI (SF-268 CNS) [µM] | TGI (SN12C renal) [µM] | TGI (BT-549 breast) [µM] | TGI (HCT-116 colon) [µM] | TGI (K-562 leukemia) [µM] | TGI (MCF7 breast) [µM] | TGI (SK-MEL-28 melanoma) [µM] | TGI (SR leukemia) [µM] |
| --- | --- | --- | --- | --- | --- | --- | --- | --- | --- | --- | --- | --- | --- | --- | --- | --- | --- | --- | --- | --- |
| COc1cc([C@@H]2c3cc4c(cc3[C@@H](OC3OC5COC(C)OC5C(OC(=O)CN5CCN(C)CC5)C3OC(=O)CN3CCN(C)CC3)C3COC(=O)[C@@H]32)OCO4)cc(OC)c1OC(=O)CN1CCN(C)CC1 (stereo not given in full) | 52.8 | > 100 | > 100 | > 100 | > 100 | > 100 | > 100 | > 100 | > 100 | > 100 | 42.6 | 46.6 | > 100 | > 100 | > 100 | > 100 | > 100 | > 100 |  |  |
| CC(=O)C1=C(C)N2C(=NC3=C(CCc4ccccc43)C2c2cccc(Br)c2)S1 (stereo not given) | > 100 | > 100 | > 100 | > 100 | > 100 | > 100 | > 100 | > 100 | > 100 | > 100 | > 100 | > 100 | > 100 | > 100 | > 100 | > 100 |  | > 100 | > 100 |  |
| NCCCCN(CCCN)Cc1ccc2ccccc2c1 | > 100 | > 100 | > 100 | > 100 |  | > 100 | 51.7 | > 100 | > 100 | 27.3 | > 100 | > 100 | 44 | 46.3 | > 100 | > 100 | > 100 | > 100 | > 100 |  |
| CO/N=C(\C(=O)Nc1cncs1)c1csc(N)n1 | > 10 | > 10 | > 10 | > 10 | > 10 | > 10 | > 10 | > 10 | > 10 | > 10 |  | > 10 | > 10 | > 10 | > 10 | > 10 | > 10 | > 10 | > 10 | > 10 |
| CCOC(=O)c1c[nH]cc1-c1cn(S(=O)(=O)c2ccccc2)cc1C | > 100 | 85.4 | > 100 | > 100 | 61.8 | > 100 | 48.4 | 44.3 | > 10 | 41 | > 100 | > 100 | 78.6 | 59.6 | 74.8 | 58.9 | 86.4 | 61 | 38.4 |  |
| Cc1ccc([N+](=O)[O-])cc1S(=O)(=O)Nc1ccc(C2=NN(C(=O)c3ccccc3)C(c3cccs3)C2)cc1 (stereo not given) | 45.2 | > 100 | 84.2 | > 100 | 45.5 | 44 | 77.4 | > 100 | 32.7 |  | > 100 | > 100 | > 100 | 66.3 | > 100 | > 100 | > 100 | > 100 | > 100 | > 100 |
| C/C=C1/CN2CCC34c5ccccc5N(C)C23C2CC1C4(C(=O)OC)C(O)O2 (stereo not given) | > 100 | > 100 | > 100 | > 100 | > 100 | > 100 | > 100 | > 100 | > 100 | > 100 | > 100 | > 100 | > 100 | > 100 | > 100 | > 100 | > 100 | > 100 | > 100 |  |
| O=[N+]([O-])C(=C(N1CCCCC1)N1CCCCC1)/C(Cl)=C(\Cl)[N+](=O)[O-] | 10.2 | 46 | 3.88 | 46 | 10.7 | 14.8 | 13.3 | 21.7 | 11 | 55.6 |  | > 31.3 | 25.4 | 4.8 | 19 | 7.54 | > 100 | 7.06 | 37.3 | > 100 |
| Cc1sc(Nc2ccccc2[N+](=O)[O-])c(C#N)c1C | 61.7 | 62.6 | > 100 | > 100 | 61.2 | 65.8 | > 100 | > 100 |  | > 100 |  | > 100 | 61.8 | > 100 | 57.9 | > 100 | > 100 | > 100 | > 100 | > 100 |
| CN(C)C(=S)N/N=C(\C(=N/NC(=S)N(C)C)c1ccccn1)c1ccccn1 | 27 | 20.4 | 8.79 | 29.6 | 14.6 | 43.1 | > 54 | 42.3 | 24.5 | 37.5 |  |  | 23.7 | 20.3 | 35.5 | 25.1 | > 100 | > 48.7 | 34.4 |  |
| CCC12CC(c3ccccc3)C(C(=O)N1)C(=O)N2 (stereo not given) | > 100 | > 100 | > 100 | > 100 | > 100 | > 100 | > 100 | > 100 | > 100 |  | > 100 | > 100 | > 100 | > 100 | > 100 | > 100 | > 100 | > 100 | > 100 | > 100 |
| O=C1C2=Cc3ccccc3OC2(O)Oc2ccc(O)cc21 (stereo not given) | > 100 | > 100 | > 100 | > 100 | > 100 | > 100 | > 100 | > 100 | > 100 | > 100 |  | 44.4 | > 100 | > 100 | > 100 | > 100 | 74.1 | > 100 | > 100 |  |
| Cc1cc(O)c(C=NC(=S)c2ccccc2)c(=O)o1 | > 100 | > 100 | > 100 | > 100 | > 100 | > 100 | > 100 | > 100 | > 100 | > 100 |  |  |  | > 100 | > 100 | > 100 |  | > 100 | > 100 |  |
| C(=NCCCN1CCN(CCCN=Cc2cccc3ccccc23)CC1)c1cccc2ccccc12 | > 100 | > 100 | > 100 | > 100 | > 100 | > 100 | > 100 | > 100 |  | > 100 |  | > 100 | > 100 | > 100 | 90.8 | > 100 | > 100 |  | > 100 | > 100 |
| CCCNC(=O)Cn1c(C)cc2ccccc21 | > 100 | > 100 | > 100 |  | > 100 |  | > 100 | > 100 | > 100 | > 100 | > 100 | > 100 | > 100 | > 100 | > 100 | > 100 | > 100 | > 100 | > 100 | > 100 |
| CCC1c2[nH]c3ccccc3c2C[C@H]2C(=O)NC(CCCCNC(=O)OC(C)(C)C)C(=O)N12 (stereo not given in full) | 81.3 | > 100 | > 100 | 62.4 | 63.4 | 99.4 | 54.9 | 40.9 | 38.8 |  | 59.6 |  | > 100 | > 100 | 58.2 | 94.4 | > 100 | > 100 | > 100 | 92.8 |
| CC(C)[Si](OC1=C(C(=O)N(C)c2ccccc2Cl)CCCCC1)(C(C)C)C(C)C | > 100 | > 100 | > 100 | > 100 | > 100 | > 100 | > 100 | > 100 | > 100 |  |  |  | > 100 | > 100 | > 100 | > 100 |  |  | > 100 |  |
| NC(=O)CCC(CCC(N)=O)(CCC(N)=O)[N+](=O)[O-] | > 100 | > 100 | > 100 | > 100 |  | > 100 | > 100 | > 100 | > 100 |  | > 100 |  | > 100 | > 100 | > 100 | > 100 |  | > 100 |  |  |
| N#Cc1c(-c2cccc(Cl)c2)cc(-c2ccc(Cl)cc2)nc1N | 33.5 | 30.9 | > 100 | 32.5 | 63.9 | 32 | 42.3 | 36.9 | 30.1 |  | 77.2 | 48.4 | 37.7 | 34.4 | 36.4 | 34.1 | > 100 | 38.3 |  | 40 |
| CC(C)(C)C1(O)C=C(O)C(=O)N1NC(=O)c1ccccc1Nc1ccccc1 (stereo not given) | > 100 | > 100 | > 100 | > 100 | 31.9 | > 100 | > 100 | > 100 | > 100 | 62.9 | 7.25 | 57.6 | > 100 | > 100 | > 100 | > 100 | > 100 | > 100 | > 100 |  |
| O=C(Nc1sccc1S(=O)(=O)c1ccc(Cl)cc1)c1ccccc1 | > 100 | > 100 | > 100 | > 100 | > 100 | > 100 | > 100 | > 100 | > 100 |  | > 100 | > 100 | > 100 | > 100 | > 100 | > 100 | > 100 | > 100 | > 100 | > 100 |
| CC1C2(C)OC(=N)C(C#N)(C(C)O2)C1(C#N)C#N (stereo not given) | 62 | 50 | > 100 | > 100 | 51.5 | 41.6 | 36.1 | 35.8 | 25.8 | 50.5 | 41.1 | 51.3 | > 100 | 29.8 | 92.5 | 65 | > 100 | 61.9 | 88.6 |  |
| COC(=O)C(Cc1c(C2Nc3ccccc3C2CC(NC(C)=O)C(=O)OC)[nH]c2ccccc12)NC(C)=O (stereo not given) | > 100 | > 100 | > 100 | > 100 | > 100 | > 100 | > 100 | > 100 | > 100 |  | > 100 | > 100 | > 100 | > 100 | > 100 | > 100 | > 100 |  | > 100 |  |
| CC1(C)CCCCCCC2CC2CCCCCC(C)(C)C1=O (stereo not given) | > 100 | > 100 | > 100 | > 100 | > 100 | > 100 | > 100 | > 100 | > 100 |  | 32.7 | 39.4 | > 100 | > 100 | > 100 | > 100 | 98.1 |  | > 100 | 20.7 |
| COC(=O)c1cnn2c1ccc1ccccc12 | > 100 | > 100 | > 100 | > 100 | > 100 | > 100 | > 100 | > 100 | > 100 |  | > 100 | > 100 | > 100 | > 100 | > 100 | > 100 | > 100 |  | > 100 |  |
| CCC(CCN)(CCN)[N+](=O)[O-] | > 100 | > 100 | > 100 | > 100 |  | > 100 | > 100 | > 100 | > 100 |  | > 100 |  | > 100 | > 100 | > 100 | > 100 | > 100 | > 100 |  | > 100 |
